Read-outs that look alike come from different tables or passages of the source.
Tests used:
plasma protein [1] = conditions: cited from earlier work
[2] = Phase 1 study: safety and tolerability; assay type: in vivo, human
From the text: Safety was monitored through recording of adverse events (AEs), clinical laboratory evaluations (clinical chemistry, hematology, coagulation parameters, and urinalysis), vital sign measurements, 12-lead electrocardiograms (ECGs), and physical examination findings during the study.
Safety measures for this study included AEs, incidence of laboratory abnormalities (based on hematology, clinical chemistry, coagulation, and urinalysis test results), 12-lead ECG parameters, vital sign measurements, and physical examinations.
All adverse events and observed values from clinical laboratory evaluations, 12-lead ECGs, vital sign measurements, and physical examinations were listed and summarized descriptively. No inferential statistical analyses were planned for the safety data.
The condition of each subject was monitored throughout the study. Any AEs and remedial actions required were recorded. The nature, time of onset, duration, and severity were documented, together with the Investigator's opinion of the relationship to drug administration. Any clinically significant abnormalities found during the course of the study were followed up until they returned to normal or could be clinically explained.

CYP2C9 = CYP2C9 (Homo sapiens, UniProt P11712); experiment: In vitro CYP phenotyping and metabolism study, recombinant CYP2C9; assay type: in vitro ADME
Procedure: (§1) Recently, an in vitro cytochrome (CYP) phenotyping and metabolism study was performed.

[3] = Phase 1 study: unbound plasma concentration and fraction unbound (protein binding); assay type: in vivo, human; conditions: human, plasma, po, 200 mg, 200 mg single oral dose
plasma protein [4] = experiment: as above; assay type: in vivo, human; conditions: 4 h, 200 mg single oral dose; for fraction unbound at 4 h: human, plasma, po, 200 mg, read-out: Fraction Unbound, Arithmetic Mean
CYP2B6 = biological target: T1, CYP2B6 (Homo sapiens, UniProt P20813); experiment: In vitro CYP phenotyping and metabolism study, recombinant CYP2B6; assay type: in vitro ADME
T1 sequence (P20813 1-491): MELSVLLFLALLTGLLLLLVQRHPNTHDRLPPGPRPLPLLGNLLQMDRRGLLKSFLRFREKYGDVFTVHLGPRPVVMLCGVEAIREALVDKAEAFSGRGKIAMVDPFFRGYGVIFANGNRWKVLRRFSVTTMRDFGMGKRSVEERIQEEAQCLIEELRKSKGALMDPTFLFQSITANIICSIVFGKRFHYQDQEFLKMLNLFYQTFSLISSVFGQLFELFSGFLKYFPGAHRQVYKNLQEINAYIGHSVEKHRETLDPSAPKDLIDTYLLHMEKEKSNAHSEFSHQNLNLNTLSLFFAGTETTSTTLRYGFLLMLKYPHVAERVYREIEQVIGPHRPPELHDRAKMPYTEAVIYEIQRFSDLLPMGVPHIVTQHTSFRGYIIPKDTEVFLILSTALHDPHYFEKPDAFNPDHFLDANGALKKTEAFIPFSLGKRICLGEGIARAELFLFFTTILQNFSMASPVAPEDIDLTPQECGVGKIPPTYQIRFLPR
Procedure: as §1

CYP3A4 = CYP3A4 (Homo sapiens, UniProt P08684); experiment: In vitro CYP phenotyping and metabolism study, recombinant CYP3A4; assay type: in vitro ADME
Procedure: as §1

[5] = Mild Hepatic Impairment, read-out: Fraction Unbound, Geometric Mean
[6] = Mild Hepatic Impairment, read-out: Fraction Unbound, Median
[7] = Mild Hepatic Impairment, read-out: Unbound Concentration, Arithmetic Mean
[8] = Mild Hepatic Impairment, read-out: Unbound Concentration, Geometric Mean
[9] = Mild Hepatic Impairment, read-out: Unbound Concentration, Median
[10] = Moderate Hepatic Impairment, read-out: Fraction Unbound, Geometric Mean
[11] = Moderate Hepatic Impairment, read-out: Fraction Unbound, Median
[12] = Moderate Hepatic Impairment, read-out: Unbound Concentration, Arithmetic Mean
[13] = Moderate Hepatic Impairment, read-out: Unbound Concentration, Geometric Mean
[14] = Moderate Hepatic Impairment, read-out: Unbound Concentration, Median
[15] = Normal Hepatic Function, read-out: Fraction Unbound, Geometric Mean
[16] = Normal Hepatic Function, read-out: Fraction Unbound, Median
[17] = Normal Hepatic Function, read-out: Unbound Concentration, Arithmetic Mean
[18] = Normal Hepatic Function, read-out: Unbound Concentration, Geometric Mean
[19] = Normal Hepatic Function, read-out: Unbound Concentration, Median

Chain of CYP2C9 (P11712 whole entry): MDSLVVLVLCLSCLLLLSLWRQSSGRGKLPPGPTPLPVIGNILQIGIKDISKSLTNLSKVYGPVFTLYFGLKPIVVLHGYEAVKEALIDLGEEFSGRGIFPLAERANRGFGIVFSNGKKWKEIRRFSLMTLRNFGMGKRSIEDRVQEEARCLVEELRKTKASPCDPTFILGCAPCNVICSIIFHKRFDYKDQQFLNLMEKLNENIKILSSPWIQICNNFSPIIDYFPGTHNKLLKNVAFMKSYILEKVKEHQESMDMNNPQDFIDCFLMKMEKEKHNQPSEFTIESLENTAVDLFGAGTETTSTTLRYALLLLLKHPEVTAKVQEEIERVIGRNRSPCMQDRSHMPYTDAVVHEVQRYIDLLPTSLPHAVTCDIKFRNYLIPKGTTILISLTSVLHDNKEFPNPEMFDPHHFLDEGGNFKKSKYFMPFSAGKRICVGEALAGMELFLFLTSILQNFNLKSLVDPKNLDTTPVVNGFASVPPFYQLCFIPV
Chain of CYP3A4 (P08684 whole entry): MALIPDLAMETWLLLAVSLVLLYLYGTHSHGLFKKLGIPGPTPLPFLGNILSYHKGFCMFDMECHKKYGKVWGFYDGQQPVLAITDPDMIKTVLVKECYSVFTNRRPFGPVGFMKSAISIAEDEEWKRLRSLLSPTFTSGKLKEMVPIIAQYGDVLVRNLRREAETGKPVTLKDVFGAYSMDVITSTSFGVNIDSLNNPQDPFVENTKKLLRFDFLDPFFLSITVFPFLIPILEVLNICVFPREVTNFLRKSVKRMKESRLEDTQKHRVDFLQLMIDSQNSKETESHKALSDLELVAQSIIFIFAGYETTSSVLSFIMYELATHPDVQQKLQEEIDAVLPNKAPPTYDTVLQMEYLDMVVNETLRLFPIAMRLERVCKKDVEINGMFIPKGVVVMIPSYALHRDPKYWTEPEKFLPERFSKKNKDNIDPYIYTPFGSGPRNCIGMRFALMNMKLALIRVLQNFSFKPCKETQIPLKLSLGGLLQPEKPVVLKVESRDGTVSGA

**Q.** For `N#CC1(c2ccc(NC(=O)c3cccnc3NCc3ccncc3)cc2)CCCC1` [Rivoceranib, N-[4-(1-cyanocyclopentyl)phenyl]-2-{[(pyridin-4-yl)methyl]amino} pyridine-3-carboxamide], which plasma protein binding (plasma protein [1]) is on record?
**A.** 97%

**Q.** What about the tolerability ([2]; 200 mg single dose (freebase), healthy subjects and subjects with mild and moderate hepatic impairment) of the same molecule?
**A.** well tolerated

**Q.** What about the “subjects with treatment-emergent adverse events (TEAEs)” value ([2]; 200 mg single dose, 27 subjects overall, both in the Mild hepatic impairment group) of the same molecule?
**A.** 2 (7.4%) subjects

**Q.** And the “laboratory, ECG, physical examination abnormalities” value ([2]; 200 mg single dose, all groups)?
**A.** no clinically significant laboratory, ECG, or physical examinations abnormalities

**Q.** What about the “treatment emergent SAEs, TEAEs leading to discontinuation, deaths” value ([2]; 200 mg single dose, all groups) of the same molecule?
**A.** No treatment emergent serious adverse events (SAEs), TEAEs leading to discontinuation, or deaths

**Q.** What about the “rivoceranib consumed at 60 minute incubation” value (“rivoceranib consumed” below) (CYP2C9; CYP2C9) of the same molecule?
**A.** less than 10%

**Q.** What about the “% Remaining at 60 minute incubation” value (CYP2C9; Recombinant CYP2C9, 5 μM) of the same molecule?
**A.** 90.3%

**Q.** What about the CLINT (CYP2C9; Recombinant CYP2C9, 5 μM) of the same molecule?
**A.** 0.119 μL/minunte/mg

**Q.** What about the half-life at 5 µM (CYP2C9; human, Recombinant CYP2C9, 5 μM, read-out: t½) of the same molecule?
**A.** 3.9 h

**Q.** What about the fraction unbound at 4 h [3, 5] of the same molecule?
**A.** 0.0232

**Q.** What about the fraction unbound at 4 h [3, 6] of the same molecule?
**A.** 0.0232

**Q.** And the concentration at 4 h [3, 7]?
**A.** 3.78 ng/mL

**Q.** What about the concentration at 4 h [3, 8] of the same molecule?
**A.** 2.59 ng/mL

**Q.** What about the concentration at 4 h [3, 9] of the same molecule?
**A.** 2.37 ng/mL

**Q.** And the fraction unbound at 24 h ([3]; Mild Hepatic Impairment, read-out: Fraction Unbound, Arithmetic Mean)?
**A.** 0.0201

**Q.** And the fraction unbound at 24 h [3, 5]?
**A.** 0.0191

**Q.** What about the fraction unbound at 24 h [3, 6] of the same molecule?
**A.** 0.0174

**Q.** And the concentration at 24 h [3, 7]?
**A.** 0.63 ng/mL

**Q.** What about the concentration at 24 h [3, 8] of the same molecule?
**A.** 0.55 ng/mL

**Q.** What about the concentration at 24 h [3, 9] of the same molecule?
**A.** 0.65 ng/mL

**Q.** What about the fraction unbound at 4 h [3, 10] of the same molecule?
**A.** 0.0373

**Q.** And the fraction unbound at 4 h [3, 11]?
**A.** 0.0419

**Q.** What about the concentration at 4 h [3, 12] of the same molecule?
**A.** 4.73 ng/mL

**Q.** What about the concentration at 4 h [3, 13] of the same molecule?
**A.** 4.52 ng/mL

**Q.** And the concentration at 4 h [3, 14]?
**A.** 4.15 ng/mL

**Q.** And the fraction unbound at 24 h ([3]; Moderate Hepatic Impairment, read-out: Fraction Unbound, Arithmetic Mean)?
**A.** 0.022

**Q.** What about the fraction unbound at 24 h [3, 10] of the same molecule?
**A.** 0.021

**Q.** What about the fraction unbound at 24 h [3, 11] of the same molecule?
**A.** 0.021

**Q.** And the concentration at 24 h [3, 12]?
**A.** 1.07 ng/mL

**Q.** What about the concentration at 24 h [3, 13] of the same molecule?
**A.** 0.82 ng/mL

**Q.** What about the concentration at 24 h [3, 14] of the same molecule?
**A.** 0.82 ng/mL

**Q.** And the fraction unbound at 4 h [3, 15]?
**A.** 0.0243

**Q.** What about the fraction unbound at 4 h [3, 16] of the same molecule?
**A.** 0.0212

**Q.** What about the concentration at 4 h [3, 17] of the same molecule?
**A.** 4.44 ng/mL

**Q.** And the concentration at 4 h [3, 18]?
**A.** 3.62 ng/mL

**Q.** And the concentration at 4 h [3, 19]?
**A.** 3.76 ng/mL

**Q.** And the fraction unbound at 24 h ([3]; Normal Hepatic Function, read-out: Fraction Unbound, Arithmetic Mean)?
**A.** 0.0172

**Q.** And the fraction unbound at 24 h [3, 15]?
**A.** 0.0168

**Q.** What about the fraction unbound at 24 h [3, 16] of the same molecule?
**A.** 0.0155

**Q.** And the concentration at 24 h [3, 17]?
**A.** 0.73 ng/mL

**Q.** And the concentration at 24 h [3, 18]?
**A.** 0.68 ng/mL

**Q.** And the concentration at 24 h [3, 19]?
**A.** 0.69 ng/mL

**Q.** And the “Fraction Unbound, Arithmetic Mean” value (plasma protein [4]; Mild Hepatic Impairment)?
**A.** 2.39%

**Q.** What about the fraction unbound at 4 h (plasma protein [4]; Mild Hepatic Impairment) of the same molecule?
**A.** 0.0239 ± 0.00639

**Q.** What about the fraction unbound at 4 h (plasma protein [4]; Moderate Hepatic Impairment) of the same molecule?
**A.** 0.0425 ± 0.022

**Q.** And the fraction unbound at 4 h (plasma protein [4]; Normal Hepatic Function)?
**A.** 0.0265 ± 0.0119

**Q.** And the “rivoceranib consumed” value (CYP2B6; CYP2B6)?
**A.** less than 10%

**Q.** What about the “% Remaining at 60 minute incubation” value (CYP2B6; Recombinant CYP2B6, 5 μM) of the same molecule?
**A.** 96.3%

**Q.** And the CLINT (CYP2B6; Recombinant CYP2B6, 5 μM)?
**A.** 0.020 μL/minunte/mg

**Q.** What about the half-life at 5 µM (CYP2B6; human, Recombinant CYP2B6, 5 μM, read-out: t½) of the same molecule?
**A.** 5.73 h

**Q.** And the “rivoceranib consumed” value (CYP3A4; CYP3A4)?
**A.** more than 60%

**Q.** And the “% Remaining at 60 minute incubation” value (CYP3A4; Recombinant CYP3A4, 5 μM)?
**A.** 37.6%

**Q.** What about the CLINT (CYP3A4; Recombinant CYP3A4, 5 μM) of the same molecule?
**A.** 0.704 μL/minunte/mg

**Q.** What about the half-life at 5 µM (CYP3A4; human, Recombinant CYP3A4, 5 μM, read-out: t½) of the same molecule?
**A.** 0.657 h
